Test results as given in patent publication US20230114728A1 (Venatorx Pharmaceuticals, Inc., priority 2019, published 2023).

Experiments:
A. baumannii PBP1a = A. baumannii PBP1a (Acinetobacter baumannii, UniProt A0ABX6CK30); assay: Bocillin-FL fluorescence polarization competition binding assay, A. baumannii PBP1a; conditions: fluorescence polarization competition binding assay using Bocillin-FL; column 1; read-out: A. baumannii PBP1a Potency
Excerpt: (§1) Example I: Experimental Method for Penicillin-Binding Protein Binding Assays with Bocillin-FL Via Fluorescence Polarization
(§2) To determine the ability of boronic acid-based test PBP inhibitors to bind Penicillin Binding Proteins (PBPs), Bocillin-FL (fluorescently-labeled penicillin V; ThermoFisher Scientific) was used in a fluorescence polarization (FP) competition binding assay to assess inhibitor binding to PBP2, PBP3 or PBP4 from Escherichia coli (K12), PBP3 from Pseudomonas aeruginosa (PA01), PBP1a, PBP2 and PBP3 from Acinetobacter baumannii (ATCC 19606), and PBP2 from Neiserria gonorrheae (FA19). PBPs were cloned and purified as described previously (E. coli PBPs, King, D. T, et al., ACS Infectious Diseases 2015, 1, 175-184; P. aeruginosa PBP3, Han et. al., PNAS 2010, 107 (51), 22002-22007; A. baumannii PBPs, Penwell et. al., Antimicrob. Agents Chemother. 2015, 59 (3), 1680-1689; N. gonorrhoeae PBP2, Singh et. al., J Biol. Chem. 2019, 294 (38), 14020-14032). To establish assay conditions for competition binding, enzyme titration/saturation binding experiments were initially performed. Bocillin-FL was prepared at 0.2 μM in a buffer comprised of 50 mM Hepes (pH 8.0), 300 mM NaCl and 5% (v/v) glycerol for reactions with E. coli, P. aeruginosa and N. gonorrhoeae PBPs, and 25 mM Tris (pH 8.0), 200 mM NaCl and 10% (v/v) glycerol and 0.005% (v/v) Tween 20 for reactions with A. baumannii PBPs. Saturation binding was performed by mixing 40 μl of PBP solutions ranging in concentrations from 0-24 μM with 40 μl of the 0.2 μM Bocillin-FL solution, in individual wells of a black 384-well microplate. FP was measured immediately upon mixing (Excitation, 490 nm; Emission, 520 nm; g-factor, 0.96), using a Cytation3 (BioTek) microplate reader and measured continuously for up to 120 minutes. […] The competition binding assay (80 μl final volume) was validated using beta-lactams and PBPs at final concentrations of: 1.5 μM, E. coli PBP3; 0.75 μM, P. aeruginosa PBP3; 1 μM A. baumannii PBP1a; 2.5 μM A. baumannii PBP2; 0.2 μM A. baumannii PBP3; and […] N. gonorrhoeae PBP2. Bocillin-FL was at 0.1 μM (0.05 μM with A. baumannii PBP1a) and beta-lactam concentrations ranged from 0-1000 μM. […] Bocillin-FL was added and the FP immediately measured for up to 60 minutes (90 minutes for E. coli PBP2). […] The beta-lactam potency was reported as the concentration of beta-lactam required to reduce the amount of PBP bound-Bocillin-FL by 50% (EC50). […] Binding assays for boronic acid PBP inhibitors were performed in an identical fashion for the respective PBPs

A. baumannii PBP2 = target: T1, A. baumannii PBP2 (Acinetobacter baumannii, UniProt D0C8Z9); assay: Bocillin-FL fluorescence polarization competition binding assay, A. baumannii PBP2; conditions: fluorescence polarization competition binding assay using Bocillin-FL; read-out: A. baumannii PBP2 Potency
T1 construct: made in house
T1 sequence (D0C8Z9 1-672): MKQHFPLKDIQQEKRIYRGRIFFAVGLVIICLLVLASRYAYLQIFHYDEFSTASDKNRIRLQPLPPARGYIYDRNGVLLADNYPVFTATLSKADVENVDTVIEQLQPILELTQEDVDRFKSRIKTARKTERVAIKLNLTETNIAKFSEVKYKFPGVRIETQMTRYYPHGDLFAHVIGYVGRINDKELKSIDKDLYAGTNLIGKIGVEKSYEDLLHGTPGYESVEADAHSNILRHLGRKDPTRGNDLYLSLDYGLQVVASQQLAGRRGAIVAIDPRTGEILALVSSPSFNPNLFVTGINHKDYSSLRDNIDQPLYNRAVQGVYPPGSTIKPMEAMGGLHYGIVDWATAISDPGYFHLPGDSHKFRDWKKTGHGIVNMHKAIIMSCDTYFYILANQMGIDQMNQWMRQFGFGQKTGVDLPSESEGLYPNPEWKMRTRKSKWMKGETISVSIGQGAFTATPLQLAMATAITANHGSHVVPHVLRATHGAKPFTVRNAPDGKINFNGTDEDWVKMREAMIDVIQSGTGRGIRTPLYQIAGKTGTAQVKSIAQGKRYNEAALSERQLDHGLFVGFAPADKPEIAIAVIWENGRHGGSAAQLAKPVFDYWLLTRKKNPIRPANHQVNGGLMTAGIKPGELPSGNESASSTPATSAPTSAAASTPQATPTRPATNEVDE
Excerpt: as §1, §2

P. aeruginosa PAO1 = assay: Broth microdilution MIC in CAMHB; type: cell-based; conditions: Pseudomonas aeruginosa, MHB, read-out: Minimum Inhibitory Concentration, P. aeruginosa PAO1
Method: To determine the ability of test compounds to inhibit the growth of bacterial strains, classic cell based broth microdilution minimum inhibitory concentration (MIC) assays were employed. MIC assays are performed according to CLSI methods except where otherwise noted (CLSI, 2018 and CLSI, 2019). The reference type strain E. coli ATCC 25922; the wild-type parent strain E. coli AG100; the hyper-permeable E. coli 901C and E. coli D22; and the E. coli AG100A strain lacking the acrAB efflux pump encoding genes were used to determine the ability of the PBP inhibitors to penetrate the outer membrane of gram-negative bacteria and inhibit bacterial growth. […] The P. aeruginosa ATCC 27853 and A. baumannii ATCC 19606, along with the hyper-permeable P. aeruginosa ATCC 35151 and an engineered efflux pump-compromised strain of P. aeruginosa (ΔmexAB-oprM) were used to determine the ability of PBP inhibitors to penetrate the outer membrane of P. aeruginosa and A. baumannii and assess antibacterial activity against these important gram-negative organisms.
Briefly, cryo-preserved bacterial cultures of challenge strains are streaked for isolation on appropriate agar medium, in this case cation-adjusted Mueller Hinton agar. Following incubation to allow growth of the colonies, plates are sealed with parafilm and stored refrigerated for up to two weeks. For preparation of assay inoculum and to ensure low variability, at least 5 colonies are picked from the agar plates with an inoculating loop and aseptically transferred to a culture tube containing 3 mL of cation-adjusted Mueller Hinton broth (CAMHB). The broth culture is grown for 3-5 hours at 37° C. with shaking at 200 rpm. Meanwhile, 2-fold serial dilutions of test compounds are conducted in a 96-well plate with a final volume of 75 μL per well at 2-fold the final desired concentration. After the dilution plates are set up the growing cultures are then diluted in a cuvette containing CAMHB and the optical density is measured at 600 nm. The inoculum is diluted such that 75 μL of this culture in CAMHB results in a starting bacterial concentration of 2-8×10^5 CFU/mL when added to the dilution plates. The plates are incubated for 16-20 hours for Enterobacteriaceae and Pseudomonas and 20-24 hours for Acinetobacter at 37° C. The MIC values are read visually as the lowest concentration well with no bacterial growth.

Chain of A. baumannii PBP1a (A0ABX6CK30 entry or part of it): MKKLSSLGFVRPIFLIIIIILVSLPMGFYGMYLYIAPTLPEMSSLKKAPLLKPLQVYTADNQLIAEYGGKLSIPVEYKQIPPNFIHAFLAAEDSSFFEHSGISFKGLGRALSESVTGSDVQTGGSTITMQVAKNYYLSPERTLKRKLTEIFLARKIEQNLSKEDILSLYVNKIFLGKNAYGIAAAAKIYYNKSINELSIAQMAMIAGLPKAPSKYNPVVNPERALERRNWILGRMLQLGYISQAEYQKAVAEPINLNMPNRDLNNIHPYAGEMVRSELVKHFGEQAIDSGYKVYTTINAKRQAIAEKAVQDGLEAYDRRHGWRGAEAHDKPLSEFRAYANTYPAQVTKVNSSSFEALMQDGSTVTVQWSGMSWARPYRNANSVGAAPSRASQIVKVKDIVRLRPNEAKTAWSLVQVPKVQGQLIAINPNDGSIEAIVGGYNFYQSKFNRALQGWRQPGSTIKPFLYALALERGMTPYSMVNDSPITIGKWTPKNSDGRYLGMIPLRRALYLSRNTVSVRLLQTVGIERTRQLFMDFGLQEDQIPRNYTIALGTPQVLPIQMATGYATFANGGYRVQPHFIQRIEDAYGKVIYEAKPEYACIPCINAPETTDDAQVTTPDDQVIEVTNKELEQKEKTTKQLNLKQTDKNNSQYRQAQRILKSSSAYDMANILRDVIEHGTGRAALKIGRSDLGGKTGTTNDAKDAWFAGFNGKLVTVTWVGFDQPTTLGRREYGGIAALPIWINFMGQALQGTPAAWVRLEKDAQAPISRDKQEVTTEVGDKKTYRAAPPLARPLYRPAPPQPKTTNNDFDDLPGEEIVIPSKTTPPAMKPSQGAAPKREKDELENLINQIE

## NCCN1CCN(C(=O)N[C@@H](C(=O)N[C@H]2Cc3ccc(F)c(C(=O)O)c3OB2O)c2c(F)cc(O)c(O)c2Cl)C(=O)C1=O (single isomer, unassigned) [Example 26]
A. baumannii PBP1a
  EC50: > 100 µM
A. baumannii PBP2
  EC50: > 100 µM

## NCCCN1CCN(C(=O)N[C@@H](C(=O)N[C@H]2Cc3ccc(F)c(C(=O)O)c3OB2O)c2c(F)cc(O)c(O)c2Cl)C(=O)C1=O (single isomer, unassigned) [Example 27]
A. baumannii PBP1a
  EC50: > 100 µM
A. baumannii PBP2
  EC50: > 100 µM

## O=C(O)c1c(F)ccc2c1OB(O)[C@@H](NC(=O)[C@H](NC(=O)N1CCNC1=O)c1c(F)cc(O)c(O)c1Cl)C2 (single isomer, unassigned) [Example 34]
A. baumannii PBP1a
  EC50: > 100 µM
A. baumannii PBP2
  EC50: 30 to 100 µM

## NCCN1CCN(C(=O)N[C@@H](C(=O)N[C@H]2Cc3ccc(F)c(C(=O)O)c3OB2O)c2c(F)cc(O)c(O)c2F)C(=O)C1=O (single isomer, unassigned) [Example 40]
A. baumannii PBP1a
  EC50: > 100 µM
A. baumannii PBP2
  EC50: 30 to 100 µM

## CS(=O)(=O)N1CCN(C(=O)NC(C(=O)N[C@H]2Cc3ccc(F)c(C(=O)O)c3OB2O)c2ccc(O)c(O)c2Cl)C1=O (stereo partly drawn) [Example 23, (3R)-3-(2-(2-chloro-3,4-dihydroxyphenyl)-2-(3-(methylsulfonyl)-2-oxoimidazolidine-1-carboxamido)acetamido)-7-fluoro-2-hydroxy-3,4-dihydro-2H-benzo[e][1,2]oxaborinine-8-carboxylic acid]
A. baumannii PBP1a
  EC50: > 100 µM
A. baumannii PBP2
  EC50: > 100 µM

## CCN1CCN(C(=O)NC(C(=O)N[C@H]2Cc3ccc(SCc4ccc(O)cc4)c(C(=O)O)c3OB2O)c2csc(N)n2)C(=O)C1=O (stereo partly drawn) [Example 55, (3R)-3-(2-(2-aminothiazol-4-yl)-2-(4-ethyl-2,3-dioxopiperazine-1-carboxamido)acetamido)-2-hydroxy-7-((4-hydroxybenzyl)thio)-3,4-dihydro-2H-benzo[e][1,2]oxaborinine-8-carboxylic acid]
P. aeruginosa PAO1
  MIC: > 128 µg/mL

## CCN1CCN(C(=O)NC(C(=O)N[C@H]2Cc3ccc(C=O)c(C(=O)O)c3OB2O)c2csc(N)n2)C(=O)C1=O (stereo partly drawn) [Example 57, (3R)-3-(2-(2-aminothiazol-4-yl)-2-(4-ethyl-2,3-dioxopiperazine-1-carboxamido)acetamido)-7-formyl-2-hydroxy-3,4-dihydro-2H-benzo[e][1,2]oxaborinine-8-carboxylic acid]
P. aeruginosa PAO1
  MIC: > 128 µg/mL

## CCN1CCN(C(=O)NC(C(=O)N[C@H]2Cc3ccc(CO)c(C(=O)O)c3OB2O)c2csc(N)n2)C(O)C1=O (stereo partly drawn) [Example 58, (3R)-3-(2-(2-aminothiazol-4-yl)-2-(4-ethyl-2-hydroxy-3-oxopiperazine-1-carboxamido)acetamido)-2-hydroxy-7-(hydroxymethyl)-3,4-dihydro-2H-benzo[el][1,2]oxaborinine-8-carboxylic acid]
P. aeruginosa PAO1
  MIC: > 128 µg/mL

## CCN1CCN(C(=O)NC(C(=O)N[C@H]2Cc3ccc(O[C@@H]4CN[C@H](C(=O)N(C)C)C4)c(C(=O)O)c3OB2O)c2ccccc2)C(=O)C1=O (stereo partly drawn) [Example 59, (3R)-7-(((3S,5S)-5-(dimethylcarbamoyl)pyrrolidin-3-yl)oxy)-3-(2-(4-ethyl-2,3-dioxopiperazine-1-carboxamido)-2-phenylacetamido)-2-hydroxy-3,4-dihydro-2H-benzo[e][1,2]oxaborinine-8-carboxylic acid]
P. aeruginosa PAO1
  MIC: > 128 µg/mL

## CCN1CCN(C(=O)NC(C(=O)N[C@H]2Cc3ccc(OCCN)c(C(=O)O)c3OB2O)c2ccccc2)C(=O)C1=O (stereo partly drawn) [Example 60, (3R)-7-(2-aminoethoxy)-3-(2-(4-ethyl-2,3-dioxopiperazine-1-carboxamido)-2-phenylacetamido)-2-hydroxy-3,4-dihydro-2H-benzo[e][1,2]oxaborinine-8-carboxylic acid]
P. aeruginosa PAO1
  MIC: > 128 µg/mL

## CCN1CCN(C(=O)NC(C(=O)N[C@H]2Cc3cccc(C(=O)O)c3OB2O)c2ccc(O)c(NC(=O)c3ccc(O)c(O)c3Cl)c2)C(=O)C1=O (stereo partly drawn) [Example 74, (3R)-3-(2-(3-(2-chloro-3,4-dihydroxybenzamido)-4-hydroxyphenyl)-2-(4-ethyl-2,3-dioxopiperazine-1-carboxamido)acetamido)-2-hydroxy-3,4-dihydro-2H-benzo[e][1,2]oxaborinine-8-carboxylic acid]
A. baumannii PBP1a
  EC50: 30 to 100 µM
A. baumannii PBP2
  EC50: > 100 µM
